The text below walks through data of patent US20240166652A1, “MODULATORS OF THE INTEGRATED STRESS PATHWAY” (Calico Life Sciences LLC, priority 2017, published 2024).

The test system of this assay is ATF4 luciferase reporter in HEK293T cells. Description: ATF4-Luc assay (ATF4 luciferase reporter, tunicamycin-treated HEK293T cells). It counts as cell-based, human. To be noted: Homo sapiens, HEK-293T; HEK293T cells carrying the ATF4 luciferase reporter, 1 μg/mL tunicamycin, 7 hours.
As for `O=C(COc1ccc(Cl)c(F)c1)NC12CC(NC(=O)Cc3ccncc3)(C1)C2` [Compound 459, 2-(4-chloro-3-fluorophenoxy)-N-{3-[2-(pyridin-4-yl)acetamido]bicyclo[1.1.1]pentan-1-yl}acetamide], the EC50 is more than 2000 nM. The result for `Cc1ccc(OCC(=O)NC23CC(NC(=O)COc4ccc(Cl)c(F)c4)(C2)C3)cc1` [Compound 460, 2-(4-chloro-3-fluorophenoxy)-N-{3-[2-(4-methylphenoxy)acetamido]bicyclo[1.1.1]pentan-1-yl}acetamide] reads 10 to 50 nM. Then `COc1cccc(CCC(=O)NC23CC(NC(=O)COc4ccc(Cl)c(F)c4)(C2)C3)c1` [Compound 461, N-{3-[2-(4-chloro-3-fluorophenoxy)acetamido]bicyclo[1.1.1]pentan-1-yl}-3-(3-methoxyphenyl)propanamide], with more than 2000 nM. As to `O=C(COc1ccc(Cl)c(F)c1)NC12CC(NC(=O)[C@H](O)CCc3ccccc3)(C1)C2` [Compound 462, (2R)-N-{3-[2-(4-chloro-3-fluorophenoxy)acetamido]bicyclo[1.1.1]pentan-1-yl}-2-hydroxy-4-phenylbutanamide], the EC50 is more than 2000 nM. The result for `CCc1cc(C)cc(OCC(=O)NC23CCC(NC(=O)COc4ccc(Cl)c(F)c4)(CC2)[C@@H](O)C3)c1` [Compound 463, 2-(4-chloro-3-fluorophenoxy)-N-{(2S)-4-[2-(3-ethyl-5-methylphenoxy)acetamido]-2-hydroxybicyclo[2.2.2]octan-1-yl}acetamide] reads more than 2000 nM; that for `CCOc1ccc(OCC(=O)NC23CCC(NC(=O)COc4ccc(Cl)c(F)c4)(CC2)[C@@H](O)C3)cc1` [Compound 464, 2-(4-chloro-3-fluorophenoxy)-N-{(2S)-4-[2-(4-ethoxyphenoxy)acetamido]-2-hydroxybicyclo[2.2.2]octan-1-yl}acetamide], 10 to 50 nM; that for `COc1cc(OCC(=O)NC23CCC(NC(=O)COc4ccc(Cl)c(F)c4)(CC2)[C@@H](O)C3)ccc1Cl` [Compound 465, 2-(4-chloro-3-fluorophenoxy)-N-{(2S)-4-[2-(4-chloro-3-methoxyphenoxy)acetamido]-2-hydroxybicyclo[2.2.2]octan-1-yl}acetamide], less than 10 nM. The result for `O=C(COc1cccc(C(F)(F)F)c1)NC12CCC(NC(=O)COc3ccc(Cl)c(F)c3)(CC1)[C@@H](O)C2` [Compound 466, 2-(4-chloro-3-fluorophenoxy)-N-[(2S)-2-hydroxy-4-{2-[3-(trifluoromethyl)phenoxy]acetamido}bicyclo[2.2.2]octan-1-yl]acetamide] reads less than 10 nM; that for `Cc1cccc(OCC(=O)NC23CCC(NC(=O)COc4ccc(Cl)c(F)c4)(CC2)[C@@H](O)C3)c1` [Compound 467, 2-(4-chloro-3-fluorophenoxy)-N-{(2S)-2-hydroxy-4-[2-(3-methylphenoxy)acetamido]bicyclo[2.2.2]octan-1-yl}acetamide], less than 10 nM. The result for `O=C(COc1ccc(C(F)(F)F)cc1)NC12CCC(NC(=O)COc3ccc(Cl)c(F)c3)(CC1)[C@@H](O)C2` [Compound 468, 2-(4-chloro-3-fluorophenoxy)-N-[(2S)-2-hydroxy-4-{2-[4-(trifluoromethyl)phenoxy]acetamido}bicyclo[2.2.2]octan-1-yl]acetamide] reads less than 10 nM; that for `Cc1cc(OCC(=O)NC23CCC(NC(=O)COc4ccc(Cl)c(F)c4)(CC2)[C@@H](O)C3)cc(C)c1C` [Compound 469, 2-(4-chloro-3-fluorophenoxy)-N-{(2S)-2-hydroxy-4-[2-(3,4,5-trimethylphenoxy)acetamido]bicyclo[2.2.2]octan-1-yl}acetamide], more than 2000 nM; that for `Cc1cc(C)cc(OCC(=O)NC23CCC(NC(=O)COc4ccc(Cl)c(F)c4)(CC2)[C@@H](O)C3)c1` [Compound 470, 2-(4-chloro-3-fluorophenoxy)-N-{(2S)-4-[2-(3,5-dimethylphenoxy)acetamido]-2-hydroxybicyclo[2.2.2]octan-1-yl}acetamide], 10 to 50 nM.

Take `Cc1ccc(OCC(=O)NC23CCC(NC(=O)COc4ccc(Cl)c(F)c4)(CC2)[C@@H](O)C3)cc1C` [Compound 471, 2-(4-chloro-3-fluorophenoxy)-N-{(2S)-4-[2-(3,4-dimethylphenoxy)acetamido]-2-hydroxybicyclo[2.2.2]octan-1-yl}acetamide]: the EC50 is less than 10 nM. Then `O=C(COc1ccc2ccccc2c1)NC12CCC(NC(=O)COc3ccc(Cl)c(F)c3)(CC1)[C@@H](O)C2` [Compound 472, 2-(4-chloro-3-fluorophenoxy)-N-[(2S)-2-hydroxy-4-{2-[(naphthalen-2-yl)oxy]acetamido}bicyclo[2.2.2]octan-1-yl]acetamide], with less than 10 nM; and `O=C(COc1ccc(OC(F)(F)F)cc1)NC12CCC(NC(=O)COc3ccc(Cl)c(F)c3)(CC1)[C@@H](O)C2` [Compound 473, 2-(4-chloro-3-fluorophenoxy)-N-[(2S)-2-hydroxy-4-{2-[4-(trifluoromethoxy)phenoxy]acetamido}bicyclo[2.2.2]octan-1-yl]acetamide], with less than 10 nM. The result for `CCCS(=O)(=O)c1ccc(OCC(=O)NC23CCC(NC(=O)COc4ccc(Cl)c(F)c4)(CC2)[C@@H](O)C3)cc1` [Compound 474, 2-(4-chloro-3-fluorophenoxy)-N-[(2S)-2-hydroxy-4-{2-[4-(propane-1-sulfonyl)phenoxy]acetamido}bicyclo[2.2.2]octan-1-yl]acetamide] reads more than 2000 nM; that for `Cc1ccc(OCC(=O)NC23CCC(NC(=O)COc4ccc(Cl)c(F)c4)(CC2)[C@@H](O)C3)cc1` [Compound 475, 2-(4-chloro-3-fluorophenoxy)-N-{(2S)-2-hydroxy-4-[2-(4-methylphenoxy)acetamido]bicyclo[2.2.2]octan-1-yl}acetamide], less than 10 nM; that for `CS(=O)(=O)c1ccc(OCC(=O)NC23CCC(NC(=O)COc4ccc(Cl)c(F)c4)(CC2)[C@@H](O)C3)cc1` [Compound 476, 2-(4-chloro-3-fluorophenoxy)-N-[(2S)-2-hydroxy-4-{2-[4-(methanesulfonyl)phenoxy]acetamido}bicyclo[2.2.2]octan-1-yl] acetamide], 50 to 250 nM. Then `CC(C)(C)c1ccc(OCC(=O)NC23CCC(NC(=O)COc4ccc(Cl)c(F)c4)(CC2)[C@@H](O)C3)cc1` [Compound 477, 2-(4-tert-butylphenoxy)-N-{(3S)-4-[2-(4-chloro-3-fluorophenoxy)acetamido]-3-hydroxybicyclo[2.2.2]octan-1-yl}acetamide], with more than 2000 nM; and `CC(C)c1cc(OCC(=O)NC23CCC(NC(=O)COc4ccc(Cl)c(F)c4)(CC2)[C@@H](O)C3)cc(C(C)C)c1` [Compound 478, 2-(4-chloro-3-fluorophenoxy)-N-[(2S)-4-{2-[3,5-di(propan-2-yl)phenoxy]acetamido}-2-hydroxybicyclo[2.2.2]octan-1-yl]acetamide], with more than 2000 nM; and `O=C(COc1ccc(Cl)c(F)c1)NC12CC(NS(=O)(=O)Cc3ccccc3)(C1)C2` [Compound 479, 2-(4-chloro-3-fluorophenoxy)-N-{3-[(phenylmethanesulfonyl)amino]bicyclo[1.1.1]pentan-1-yl]acetamide], with more than 2000 nM.

Turning to `O=C(COc1ccc(Cl)c(F)c1)NC12CC(NS(=O)(=O)CCc3ccc(F)cc3)(C1)C2` [Compound 480, 2-(4-chloro-3-fluorophenoxy)-N-(3-{[2-(4-fluorophenyl)ethanesulfonyl]amino}bicyclo[1.1.1]pentan-1-yl)acetamide], the EC50 was more than 2000 nM. The result for `O=C(COc1ccc(Cl)c(F)c1)NC12CC(NS(=O)(=O)Cc3ccccc3F)(C1)C2` [Compound 481, 2-(4-chloro-3-fluorophenoxy)-N-(3-{[(2-fluorophenyl)methanesulfonyl]amino}bicyclo[1.1.1]pentan-1-yl)acetamide] reads more than 2000 nM; that for `Cc1ccccc1CS(=O)(=O)NC12CC(NC(=O)COc3ccc(Cl)c(F)c3)(C1)C2` [Compound 482, 2-(4-chloro-3-fluorophenoxy)-N-(3-{[(2-methylphenyl)methanesulfonyl]amino}bicyclo[1.1.1]pentan-1-yl)acetamide], more than 2000 nM. Then `O=C(COc1ccc(Cl)c(F)c1)NC12CC(NS(=O)(=O)Cc3ccc(F)c(F)c3)(C1)C2` [Compound 483, 2-(4-chloro-3-fluorophenoxy)-N-(3-{[(3,4-difluorophenyl)methanesulfonyl]amino}bicyclo[1.1.1]pentan-1-yl)acetamide], with more than 2000 nM; and `O=C(COc1ccc(Cl)c(F)c1)NC12CC(NS(=O)(=O)Cc3cc(F)cc(F)c3)(C1)C2` [Compound 484, 2-(4-chloro-3-fluorophenoxy)-N-(3-{[(3,5-difluorophenyl)methanesulfonyl]amino}bicyclo[1.1.1]pentan-1-yl)acetamide], with more than 2000 nM. Then `O=C(COc1ccc(Cl)c(F)c1)NC12CC(NS(=O)(=O)CCOc3ccccc3F)(C1)C2` [Compound 485, 2-(4-chloro-3-fluorophenoxy)-N-(3-{[2-(2-fluorophenoxy)ethanesulfonyl]amino}bicyclo[1.1.1]pentan-1-yl)acetamide], with 500 to 2000 nM; and `Cc1cccc(CS(=O)(=O)NC23CC(NC(=O)COc4ccc(Cl)c(F)c4)(C2)C3)c1` [Compound 486, 2-(4-chloro-3-fluorophenoxy)-N-(3-{[(3-methylphenyl)methanesulfonyl]amino}bicyclo[1.1.1]pentan-1-yl)acetamide], with more than 2000 nM; and `O=C(COc1ccc(Cl)c(F)c1)NC12CC(NS(=O)(=O)Cc3ccc(F)cc3)(C1)C2` [Compound 487, 2-(4-chloro-3-fluorophenoxy)-N-(3-{[(4-fluorophenyl)methanesulfonyl]amino}bicyclo[1.1.1]pentan-1-yl)acetamide], with more than 2000 nM.

In the case of `O=C(COc1ccc(Cl)c(F)c1)NC12CC(NS(=O)(=O)CCOc3ccccc3)(C1)C2` [Compound 488, 2-(4-chloro-3-fluorophenoxy)-N-{3-[(2-phenoxyethanesulfonyl)amino]bicyclo[1.1.1]pentan-1-yl}acetamide], the EC50 is more than 2000 nM.
